Assay results from article PMC7495481, “Sequence specificity analysis of the SETD2 protein lysine methyltransferase and discovery of a SETD2 super-substrate” (Communications Biology, 2020).

Tests used:
Type in all cases: biochemical
[1] = molecular target: T1, SETD2 (Homo sapiens, UniProt Q9BYW2); assay: Methylation of purified ssK36 and H3K36 peptides, Tricine gel autoradiography; settings: 20 µM peptide, 6 µM SETD2, 0.76 µM AdoMet, 3 h, 25 °C; densitometry, three independent experiments, ± SD
T1 construct: SETD2 catalytic SET domain (amino acids 1347–1711, UniProt No: Q9BYW2); made in house; host or cells: E. coli
T1 sequence (Q9BYW2 1347-1711): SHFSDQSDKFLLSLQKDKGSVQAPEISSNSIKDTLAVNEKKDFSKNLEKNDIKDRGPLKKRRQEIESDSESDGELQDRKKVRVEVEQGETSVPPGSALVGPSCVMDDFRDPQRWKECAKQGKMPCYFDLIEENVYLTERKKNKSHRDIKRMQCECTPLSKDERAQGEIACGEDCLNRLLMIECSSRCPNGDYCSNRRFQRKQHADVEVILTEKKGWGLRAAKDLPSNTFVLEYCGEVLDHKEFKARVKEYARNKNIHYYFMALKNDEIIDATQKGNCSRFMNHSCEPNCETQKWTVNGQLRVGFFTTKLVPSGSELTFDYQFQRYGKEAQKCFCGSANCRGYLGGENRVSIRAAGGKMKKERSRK
Excerpt: To compare the methylation rates of the H3K36 and super-substrate peptides directly, purified ssK36 and H3K36 were methylated by SETD2, resolved on a Tricine gel and the methylation activity captured by autoradiography (Fig. 2b). To allow direct comparison of the methylation levels of both substrates, methylated ssK36 was loaded in different dilutions on the same gel.
(§1) The H3K36 (27–43) and the H3K36M (27–43) peptides were purchased from Intavis AG (Köln, Germany) and the ssK36 peptide (29–43) and the ssK36M peptide (29–43) were from Innovative Peptide Solutions (Berlin, Germany). If not indicated otherwise, peptide methylation reactions were performed using 20 µM peptide and 6 µM SETD2 in 20 µl methylation buffer supplemented with 0.76 µM radioactive labeled AdoMet (PerkinElmer) for 3 h at 25 °C. The reactions were halted by the addition of Tricine-SDS-PAGE loading buffer and incubation for 5 min at 95 °C. Afterward the samples were separated by Tricine-SDS-PAGE, which was followed by the incubation of the gel in amplify NAMP100V (GE Healthcare) for 45 min on a shaker and drying of the gel for 2 h at 55 °C in vacuum. The signals of the transferred radioactive labeled methyl groups were detected by autoradiography using a hyperfilm^TM high performance autoradiography film (GE Healthcare) at −80 °C in the dark. […]

[2] = molecular target: T1, SETD2; assay: Time courses of methylation of ssK36 and H3K36 compared (initial slopes); settings: 20 µM substrate, 6 µM enzyme; two experiments, average ± SEM
Excerpt: Fig. 2 Design of an optimized SETD2 peptide substrate and analysis of its methylation. a Variants of the H3K36 (29–43) peptide containing up to five mutations (Supplementary Table 1) were synthesized on a cellulose membrane and methylated by SETD2. The signal of the transferred radioactive methyl groups was detected by autoradiography. Spots A1 and B15 contain the H3K36 sequence, A2 and B16 the H3K36A peptide. Two films with different exposure times are shown to visualize weaker methylated spots as well. b Comparison of the methylation of purified super-substrate (ssK36) and the H3K36 peptides. […] Methylation reactions were conducted using 20 µM peptide and 6 µM enzyme. […]
The H3K36 (27–43) and the H3K36M (27–43) peptides were purchased from Intavis AG (Köln, Germany) and the ssK36 peptide (29–43) and the ssK36M peptide (29–43) were from Innovative Peptide Solutions (Berlin, Germany). […] The signals of the transferred radioactive labeled methyl groups were detected by autoradiography using a hyperfilm^TM high performance autoradiography film (GE Healthcare) at −80 °C in the dark. […]
Time courses of ssK36 methylation were analyzed by fitting to an exponential reaction progress curve (Eq. 1). Initial rates of single turnover reactions were determined using the first derivative of eq. […]

[3] = molecular target: T1, SETD2; assay: Steady-state peptide methylation kinetics (Michaelis-Menten); settings: 20–320 µM peptide; Michaelis-Menten fit; two independent experiments
Procedure: To further characterize the methylation kinetics of the super-substrate peptide, steady-state methylation experiments were performed using the super-substrate peptide in different concentrations ranging from 20 to 320 µM (Supplementary Fig. 3a). […] To further study the difference in peptide binding, inhibition of SETD2 by ssK36M and H3K36M inhibitor peptides was investigated (Supplementary Fig. 3b and c).
as §1, with “Afterward the samples were separated by Tricine-SDS-PAGE, which was followed by the incubation of the gel in amplify NAMP100V (GE Healthcare) for 45 min on a shaker and drying of the gel for 2 h at 55 °C in vacuum.” left out
Multiple turnover kinetics were determined using variable peptide concentrations (20–320 µM). […]

[4] = tested on: NSD1; assay: Peptide methylation by NSD1; settings: peer review file
Excerpt: (§2) We, therefore, repeated the peptide array used for the development of the SETD2 super-substrate, which is shown in Figure 2A of our manuscript for NSD1 and NSD2. […]
(§3) that this mutation specifically increases the activity of these two enzymes. In contrast, with […]
(§4) combined with H39N/K. Importantly, in case of SETD2 H39N only has an effect in the context of the other mutations in ssK36. We conclude that the ssK36 substrate is specifically optimized for SETD2 as expected given the workflow of our experiments. The finding that H39N increases the activity of NSD1 and NSD2 is interesting and deserves additional work. It […]
(§5) conducted with NSD1 and NSD2. The SETD2 panel is taken from the manuscript for comparison. The table indicates the peptide compositions. Note, the gradual increase of methylation with increasing number of mutations in the case of SETD2. In case of NSD1 and NSD2, increased methylation is solely due to the H39N mutation , which has a weaker […]

[5] = tested on: SUV39H2; assay: Methylation of ssK36 by SUV39H2; settings: peer review file Figure R1
[6] = molecular target: T1, SETD2; assay: Single turnover time course of ssK36 methylation; settings: 5 µM substrate, 6 µM enzyme; average ± SEM
Procedure: The H3K36 (27–43) and the H3K36M (27–43) peptides were purchased from Intavis AG (Köln, Germany) and the ssK36 peptide (29–43) and the ssK36M peptide (29–43) were from Innovative Peptide Solutions (Berlin, Germany). If not indicated otherwise, peptide methylation reactions were performed using 20 µM peptide and 6 µM SETD2 in 20 µl methylation buffer supplemented with 0.76 µM radioactive labeled AdoMet (PerkinElmer) for 3 h at 25 °C. The reactions were halted by the addition of Tricine-SDS-PAGE loading buffer and incubation for 5 min at 95 °C. Afterward the samples were separated by Tricine-SDS-PAGE, which was followed by the incubation of the gel in amplify NAMP100V (GE Healthcare) for 45 min on a shaker and drying of the gel for 2 h at 55 °C in vacuum. The signals of the transferred radioactive labeled methyl groups were detected by autoradiography using a hyperfilm^TM high performance autoradiography film (GE Healthcare) at −80 °C in the dark. The film was developed with an Optimax Typ TR machine after different exposure times.
Time courses of ssK36 methylation were analyzed by fitting to an exponential reaction progress curve (Eq. 1). Initial rates of single turnover reactions were determined using the first derivative of eq. 1 at t = 0. Signal=BL+F×1−exp^−kst×t […]

[7] = tested on: NSD2; assay: Peptide methylation by NSD2; settings: peer review file
Excerpt: as §2, §3, §4, §5

## APRFGGVKRPNRYRP [ssK36, super-substrate peptide with four amino acid exchanges (A31R, T32F, K37R, H39N)]
[1]
  fold more efficient methylation of ssK36 than wild type H3K36 peptide: 50 ± 4 fold
[2]
  fold higher initial slope for ssK36 methylation vs H3K36: 290 ± 70 fold
[3]
  Km: 45 µM
[4]
  methylation by NSD1: better substrate than H3K36
[5]
  methylation by SUV39H2: Lack of methylation
[6]
  single turnover methylation rate constant kst: 4.07 ± 0.39 h⁻¹
[7]
  methylation by NSD2: better substrate than H3K36
